Measured values: paper PMC9784828, “Antimicrobial Activity of Peptide-Coupled Antisense Peptide Nucleic Acids in Streptococcus pneumoniae” (Microbiology Spectrum, 2022)

How the values were obtained:
rpoB mRNA = test: RT-qPCR, relative expression of rpoB; format: cell-based, Streptococcus pneumoniae; conditions: TIGR4; 10 μM CPP-anti-rpoB PNA; 6 h; normalised to 5S rRNA; n = 3
Method: (§1) We investigated the influence of treatment with CPP-conjugated antisense PNAs on the amount of target gene mRNA in S. pneumoniae using reverse transcription-quantitative PCR (RT-qPCR) (Fig. 3). S. pneumoniae strain TIGR4 was treated with a sublethal dose (log CFU reduction of <2) of CPP-PNA conjugates. Transcript abundance of the 5S rRNA gene was used for normalization ([27]). Target gene mRNA levels in mock-treated bacteria served as controls. Treatment with 7.5 μM CPP-anti-gyrA PNAs and 10 μM CPP-anti-rpoB PNAs led to significant reductions in the respective target gene transcripts compared to the untreated control sample (Fig. 3).
(§2) For RNA isolation, 450 μL bacterial suspension (10^5 CFU/mL in BHI) was prepared for each experimental condition, treated with CPP-PNA conjugates as indicated, and incubated in a 2-mL reaction tube for 6 h at 37°C and 7 rpm (Rotor SB3; Stuart, Staffordshire, United Kingdom). Subsequently, five samples per condition were pooled. […]
(§3) cDNA synthesis was performed using the Superscript First-Strand Synthesis system for RT-qPCR (Invitrogen, Thermo Fisher Scientific, Darmstadt, Germany). Quantitative PCR amplification was conducted with SYBR Green (Thermo Fisher Scientific) using the LightCycler 480 real-time PCR system (Roche Diagnostics GmbH, Mannheim, Germany). […] Relative expression was calculated using the 2^–ΔΔ^CT method ([27]). […]

[1] = test system: ply (pneumolysin) transcript; test: RT-qPCR, relative expression of virulence gene ply; format: cell-based, Streptococcus pneumoniae; conditions: TIGR4; 10 μM CPP-anti-rpoB PNA; normalised to 5S rRNA; n = 3
Method: (§4) Because the product of rpoB is the β-subunit of the bacterial RNA-polymerase, which is responsible for RNA synthesis, downregulation of rpoB by treatment with antisense PNAs is expected to affect gene expression. Therefore, we tested the relative expression of two virulence factor genes following treatment with 10 μM CPP-anti-rpoB PNAs compared to expression in the mock-treated control as an example (Fig. 3C and D).
as §2, with “pooled. Bacteria were pelleted immediately, shock-frozen in liquid nitrogen, and stored at −80°C until use. Total RNA was extracted according to the protocol published by Li-Korotky et al. ([46]).” for “pooled.”
as §3

[2] = test system: pspA (pneumococcal surface protein A) transcript; test: RT-qPCR, relative expression of virulence gene pspA; format: cell-based, Streptococcus pneumoniae; conditions: TIGR4; 10 μM CPP-anti-rpoB PNA; normalised to 5S rRNA; n = 3
Method: as §4
as §2, with “pooled. Bacteria were pelleted immediately, shock-frozen in liquid nitrogen, and stored at −80°C until use. Total RNA was extracted according to the protocol published by Li-Korotky et al. ([46]).” for “pooled.”
as §3

S. pneumoniae TIGR4 = test: In vitro time-killing assay (killing kinetics); format: cell-based, Streptococcus pneumoniae; conditions: 10 μM, n = 3
Method: The antimicrobial activity kinetics of TAT- and (RXR)4XB-conjugated anti-gyrA PNA constructs in S. pneumoniae TIGR4 were studied using an in vitro time-killing assay. Bacteria were treated with 10 μM CPP-antisense PNAs or scrambled control PNAs (Fig. 2). Samples were collected every 2 h following antisense treatment. CFU/mL was determined by plating of serial dilutions and plotted over time. […] In contrast, (RXR)4XB-conjugated anti-gyrA PNA treatment led to a continuous reduction in S. pneumoniae CFU until complete eradication after 12 h.
For monitoring of killing kinetics, samples were collected 2 to 12 h post-treatment. Viable cell counts were determined by plating appropriate dilutions on BHI agar plates. CFU were determined by visual inspection following overnight incubation at 37°C under a 5% CO2 atmosphere. At time point 0, the viable cell count corresponded to 1 × 10^5 to 3 × 10^5 CFU/mL.

gyrA mRNA = test: RT-qPCR, relative expression of gyrA; format: cell-based, Streptococcus pneumoniae; conditions: TIGR4; 7.5 μM CPP-anti-gyrA PNA; 6 h; normalised to 5S rRNA; 2^–ΔΔCT; n = 3
Method: as §1, §2, §3

[3] = test system: G. mellonella larvae infected with S. pneumoniae TIGR4; test: G. mellonella infection model, bacterial load; format: in vivo, Galleria mellonella; conditions: 10 nmol CPP-PNA/larva; 24 h postinfection; n = 4 larvae per group, three experiments
Method: To establish the antibacterial effect of PNAs in the invertebrate infection model, we assessed the bacterial loads in infected larvae (Fig. 6). Larvae were infected and subsequently treated with NaCl (mock), 10 nmol CPP-PNA, or levofloxacin (positive control), respectively. From each group, four larvae were homogenized at 24 h postinfection. CFU/larva were determined following serial dilutions of the suspension and plating on selective medium. Treatment with (RXR)4XB-anti-gyrA caused a log CFU reduction of 1 compared to that in the mock-treated larvae. The addition of 1 or 10 μg levofloxacin led to a log CFU reduction of 2 or 6, respectively.
For determination of bacterial load, larvae were infected and subsequently treated with NaCl (mock), CPP-PNAs, or levofloxacin (positive control). At 24 h after infection, larvae were homogenized. Following serial dilution, the suspension was plated on selective medium (BD Columbia CNA Agar with 5% sheep blood; Becton Dickinson GmbH, Heidelberg, Germany). Agar plates were incubated overnight at 37°C, 5% CO2. CFU/larva was determined by visual inspection. Colony identity was verified on a random basis by colony PCR using ply-specific primers.

Substance	rpoB transcript level relative to mock-treated control (rpoB mRNA) [%]	Expression of ply relative to mock-treated control [1] [%]	Expression of pspA relative to mock-treated control [2]	Time to complete eradication of S. pneumoniae CFU (S. pneumoniae TIGR4) [h]	gyrA mRNA level relative to mock-treated control (gyrA mRNA) [%]	log CFU reduction of bacterial load compared to mock-treated larvae [3]
GRKKRRQRRRYK-eg-ctgccaagatga [TAT-anti-rpoB PNA, HIV-1 TAT (48–57) peptide coupled to antisense PNA against S. pneumoniae rpoB]	45	45	57%	–	–	–
RXRRXRRXRRXRXB-eg-ctgccaagatga [(RXR)4XB-anti-rpoB PNA, (RXR)4XB peptide coupled to antisense PNA against rpoB]	51	56	no significant reduction	–	–	–
RXRRXRRXRRXRXB-eg-tgcattaata [(RXR)4XB-anti-gyrA PNA, (RXR)4XB peptide coupled to antisense PNA against gyrA]	–	–	–	12	45	1
